Experimental data reported in patent US20240024488A1, “COMPOUNDS AND USES THEREOF” (Foghorn Therapeutics Inc., priority 2020, published 2024).

Legend:
HiBit-BRM fusion protein = molecular target: T1, HiBit-BRM fusion protein (Homo sapiens, UniProt P51531); experiment: HiBiT-BRM cell-based degradation assay (Nano-Glo HiBiT Lytic Detection, 24 h); conditions: HeLa cell line expressing HiBiT-BRM; for DC50: read-out: BRM HiBit Degradation IC50
T1 construct: expressed in transfected cells
Procedure, shortened: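 HeLa cells stably expressing HiBiT-BRM were treated for 24 h with compounds (10-point 3-fold dilutions, 30 μM final top dose, in duplicate). HiBiT was detected by lytic LgBiT complementation luminescence. % degradation was normalized to DMSO (high control) and 2 μM of a reference BRM/BRG1 degrader (low control).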

[1] = molecular target: T2, HiBit-BRG1 fusion protein (Homo sapiens, UniProt P51532); experiment: HiBiT-BRG1 cell-based degradation assay (Nano-Glo HiBiT Lytic Detection, 24 h); conditions: HeLa cell line expressing HiBit-BRG1 and LgBit; for Dmax: read-out: BRG1 HiBit Degradation Maximum (%); for DC50: read-out: BRMG1 HiBit Degradation IC50
T2 construct: expressed in transfected cells
Procedure, shortened: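 HeLa cells stably expressing HiBiT-BRG1 plus LgBit, 5000/well, treated 24 h, then lysed with Nano-Glo HiBiT lytic reagent and luminescence read. % degradation normalised between DMSO (high control) and 2 μM reference BRM/BRG1 degrader (low control).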

T2 sequence (P51532 whole entry, the tested form may be a part): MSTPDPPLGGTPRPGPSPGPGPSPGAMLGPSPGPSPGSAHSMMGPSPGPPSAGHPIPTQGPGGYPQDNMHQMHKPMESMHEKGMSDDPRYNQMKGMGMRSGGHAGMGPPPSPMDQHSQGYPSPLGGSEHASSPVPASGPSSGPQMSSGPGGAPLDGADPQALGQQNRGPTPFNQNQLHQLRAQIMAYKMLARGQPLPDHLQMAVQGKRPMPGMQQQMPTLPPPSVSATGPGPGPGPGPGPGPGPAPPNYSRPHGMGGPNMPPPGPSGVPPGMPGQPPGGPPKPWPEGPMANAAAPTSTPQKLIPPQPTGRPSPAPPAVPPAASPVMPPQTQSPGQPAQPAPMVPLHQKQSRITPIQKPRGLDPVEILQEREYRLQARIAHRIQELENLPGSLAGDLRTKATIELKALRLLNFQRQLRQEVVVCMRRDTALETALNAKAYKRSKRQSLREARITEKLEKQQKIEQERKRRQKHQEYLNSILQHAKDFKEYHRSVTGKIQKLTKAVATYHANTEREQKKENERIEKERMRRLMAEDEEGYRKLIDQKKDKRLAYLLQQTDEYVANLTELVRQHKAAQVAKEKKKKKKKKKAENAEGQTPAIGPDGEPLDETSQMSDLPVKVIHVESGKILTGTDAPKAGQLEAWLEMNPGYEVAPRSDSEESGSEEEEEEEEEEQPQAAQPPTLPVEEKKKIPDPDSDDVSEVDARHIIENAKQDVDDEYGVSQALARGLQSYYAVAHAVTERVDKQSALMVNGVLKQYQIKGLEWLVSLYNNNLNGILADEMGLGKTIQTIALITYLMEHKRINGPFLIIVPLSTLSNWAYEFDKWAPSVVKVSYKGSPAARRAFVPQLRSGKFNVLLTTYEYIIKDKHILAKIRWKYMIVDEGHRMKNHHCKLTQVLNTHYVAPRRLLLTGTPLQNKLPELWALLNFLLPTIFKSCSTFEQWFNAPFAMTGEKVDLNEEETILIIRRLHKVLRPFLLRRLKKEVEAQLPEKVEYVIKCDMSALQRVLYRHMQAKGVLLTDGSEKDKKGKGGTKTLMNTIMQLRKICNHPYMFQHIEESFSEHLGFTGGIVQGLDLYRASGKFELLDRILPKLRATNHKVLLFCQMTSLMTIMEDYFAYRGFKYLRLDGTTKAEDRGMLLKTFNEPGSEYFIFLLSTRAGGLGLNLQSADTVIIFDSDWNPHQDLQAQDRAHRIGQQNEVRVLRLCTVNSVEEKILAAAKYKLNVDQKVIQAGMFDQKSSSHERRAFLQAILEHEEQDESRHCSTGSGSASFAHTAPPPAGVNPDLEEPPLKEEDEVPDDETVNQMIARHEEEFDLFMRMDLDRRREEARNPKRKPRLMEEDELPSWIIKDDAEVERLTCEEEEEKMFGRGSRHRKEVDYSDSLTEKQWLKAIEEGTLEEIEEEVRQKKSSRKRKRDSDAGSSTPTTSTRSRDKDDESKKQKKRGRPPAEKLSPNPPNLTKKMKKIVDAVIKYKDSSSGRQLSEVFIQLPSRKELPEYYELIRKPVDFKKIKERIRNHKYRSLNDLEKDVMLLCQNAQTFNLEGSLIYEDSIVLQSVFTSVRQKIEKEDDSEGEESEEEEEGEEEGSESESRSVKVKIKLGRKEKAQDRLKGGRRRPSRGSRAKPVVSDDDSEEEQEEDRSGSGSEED
T1 sequence (P51531 whole entry, the tested form may be a part): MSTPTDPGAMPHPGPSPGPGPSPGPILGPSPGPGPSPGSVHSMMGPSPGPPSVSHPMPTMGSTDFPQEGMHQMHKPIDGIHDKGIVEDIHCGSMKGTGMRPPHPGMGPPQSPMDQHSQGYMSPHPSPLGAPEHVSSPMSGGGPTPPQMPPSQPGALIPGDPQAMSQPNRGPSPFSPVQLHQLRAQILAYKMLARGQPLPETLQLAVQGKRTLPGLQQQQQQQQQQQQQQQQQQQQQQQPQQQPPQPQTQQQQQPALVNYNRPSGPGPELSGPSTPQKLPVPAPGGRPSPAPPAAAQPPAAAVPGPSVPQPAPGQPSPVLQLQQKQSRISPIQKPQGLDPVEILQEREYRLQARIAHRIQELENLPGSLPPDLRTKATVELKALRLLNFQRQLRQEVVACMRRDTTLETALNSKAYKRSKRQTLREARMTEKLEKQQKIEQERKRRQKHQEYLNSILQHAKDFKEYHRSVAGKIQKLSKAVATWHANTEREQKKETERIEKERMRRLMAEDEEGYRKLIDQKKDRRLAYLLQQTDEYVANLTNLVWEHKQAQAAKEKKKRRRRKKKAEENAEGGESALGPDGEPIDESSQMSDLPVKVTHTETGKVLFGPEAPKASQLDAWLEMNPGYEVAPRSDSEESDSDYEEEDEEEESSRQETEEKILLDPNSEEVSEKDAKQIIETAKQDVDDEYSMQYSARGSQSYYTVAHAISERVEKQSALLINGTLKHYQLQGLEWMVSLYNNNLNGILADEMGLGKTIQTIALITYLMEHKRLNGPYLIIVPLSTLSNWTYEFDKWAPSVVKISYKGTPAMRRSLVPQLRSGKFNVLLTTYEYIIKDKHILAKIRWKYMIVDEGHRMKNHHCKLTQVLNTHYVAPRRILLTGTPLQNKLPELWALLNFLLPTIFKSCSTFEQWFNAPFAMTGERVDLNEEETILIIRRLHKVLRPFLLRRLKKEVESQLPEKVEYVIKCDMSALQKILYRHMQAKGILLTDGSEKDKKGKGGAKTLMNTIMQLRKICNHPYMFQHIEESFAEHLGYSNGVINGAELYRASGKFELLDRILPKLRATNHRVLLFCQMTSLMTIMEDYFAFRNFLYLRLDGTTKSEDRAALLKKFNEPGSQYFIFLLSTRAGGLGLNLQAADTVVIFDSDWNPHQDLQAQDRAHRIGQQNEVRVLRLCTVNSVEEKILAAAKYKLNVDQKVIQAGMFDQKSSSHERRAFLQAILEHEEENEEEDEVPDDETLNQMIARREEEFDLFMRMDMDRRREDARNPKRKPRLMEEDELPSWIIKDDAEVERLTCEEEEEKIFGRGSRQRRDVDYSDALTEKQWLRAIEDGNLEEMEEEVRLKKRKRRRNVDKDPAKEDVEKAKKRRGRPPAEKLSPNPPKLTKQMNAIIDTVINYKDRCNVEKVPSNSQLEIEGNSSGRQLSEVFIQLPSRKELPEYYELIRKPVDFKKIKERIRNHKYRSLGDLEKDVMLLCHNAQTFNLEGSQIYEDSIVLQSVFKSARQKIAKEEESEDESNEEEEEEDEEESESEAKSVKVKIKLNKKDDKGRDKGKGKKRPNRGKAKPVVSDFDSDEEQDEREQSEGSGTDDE

Structure (SMILES) | BRM HiBit Degradation Maximum (%) (HiBit-BRM fusion protein) | Dmax [1] | DC50 (HiBit-BRM fusion protein) | DC50 [1]
Cc1ncsc1-c1ccc([C@H](C)NC(=O)[C@@H]2C[C@@H](O)CN2C(=O)[C@@H](c2cc(OCCN3CCc4[nH]c5nnc(-c6ccccc6O)cc5c4C3)no2)C(C)C)cc1 (racemic) [Compound 303, (2S,4R)-4-hydroxy-1-((R)-2-(3-(2-(3-(2-hydroxyphenyl)-5,7,8,9-tetrahydro-6H-pyrido[3′,4′:4,5]pyrrolo[2,3-c]pyridazin-6-yl)ethoxy)isoxazol-5-yl)-3-methylbutanoyl)-N-((S)-1-(4-(4-methylthiazol-5-yl)phenyl)ethyl)pyrrolidine-2-carboxamide] | C (“C” indicates maximum degradation < 50%) | < 50% |  | 
Cc1ncsc1-c1ccc([C@H](C)NC(=O)[C@@H]2C[C@@H](O)CN2C(=O)[C@@H](c2cc(OCCN3CC4(CC(c5c[nH]c6nnc(-c7ccccc7O)cc56)C4)C3)no2)C(C)C)cc1 (racemic) [Compound 304, (2S,4R)-4-hydroxy-1-((R)-2-(3-(2-(6-(3-(2-hydroxyphenyl)-7H-pyrrolo[2,3-c]pyridazin-5-yl)-2-azaspiro[3.3]heptan-2-yl)ethoxy)isoxazol-5-yl)-3-methylbutanoyl)-N-((S)-1-(4-(4-methylthiazol-5-yl)phenyl)ethyl)pyrrolidine-2-carboxamide] | A (“A” indicates maximum degradation ≥ 75%) | > 75% | > 0.01 µM | > 0.1 µM
Cc1ncsc1-c1ccc([C@H](C)NC(=O)[C@@H]2C[C@@H](O)CN2C(=O)[C@@H](c2cc(OCC(=O)N3CC(c4cc5cc(-c6ccccc6O)nnc5[nH]4)C3)no2)C(C)C)cc1 (racemic) [Compound 305, (2S,4R)-4-hydroxy-1-((R)-2-(3-(2-(3-(3-(2-hydroxyphenyl)-7H-pyrrolo[2,3-c]pyridazin-6-yl)azetidin-1-yl)-2-oxoethoxy)isoxazol-5-yl)-3-methylbutanoyl)-N-((S)-1-(4-(4-methylthiazol-5-yl)phenyl)ethyl)pyrrolidine-2-carboxamide] | A (“A” indicates maximum degradation ≥ 75%) | < 50% | > 1 µM | 
Cc1ncsc1-c1ccc(CNC(=O)[C@@H]2C[C@@H](O)CN2C(=O)[C@@H](NC(=O)C(=O)N2CC(c3cc4cc(-c5ccccc5O)nnc4[nH]3)C2)C(C)(C)C)cc1 (racemic) [Compound 306, (2S,4R)-4-hydroxy-1-((S)-2-(2-(3-(3-(2-hydroxyphenyl)-7H-pyrrolo[2,3-c]pyridazin-6-yl)azetidin-1-yl)-2-oxoacetamido)-3,3-dimethylbutanoyl)-N-(4-(4-methylthiazol-5-yl)benzyl)pyrrolidine-2-carboxamide] | C (“C” indicates maximum degradation < 50%) | < 50% |  | 
Cc1ncsc1-c1ccc([C@H](C)NC(=O)[C@@H]2C[C@@H](O)CN2C(=O)[C@@H](c2cc(OCCN3CC(c4[nH]c5nnc(-c6ccccc6O)cc5c4C)C3)no2)C(C)C)cc1 (racemic) [Compound 307, (2S,4R)-4-hydroxy-1-((R)-2-(3-(2-(3-(3-(2-hydroxyphenyl)-5-methyl-7H-pyrrolo[2,3-c]pyridazin-6-yl)azetidin-1-yl)ethoxy)isoxazol-5-yl)-3-methylbutanoyl)-N-((S)-1-(4-(4-methylthiazol-5-yl)phenyl)ethyl)pyrrolidine-2-carboxamide] | A (“A” indicates maximum degradation ≥ 75%) | > 75% | < 0.01 µM | > 0.01 µM
Cc1ncsc1-c1ccc([C@H](C)NC(=O)[C@@H]2C[C@@H](O)CN2C(=O)[C@@H](c2cc(OCCN3C[C@@H]4[C@H](C3)[C@H]4c3cc4cc(-c5ccccc5O)nnc4[nH]3)no2)C(C)C)cc1 (racemic) [Compound 308, (2S,4R)-4-hydroxy-1-((R)-2-(3-(2-((1R,5S,6R)-6-(3-(2-hydroxyphenyl)-7H-pyrrolo[2,3-c]pyridazin-6-yl)-3-azabicyclo[3.1.0]hexan-3-yl)ethoxy)isoxazol-5-yl)-3-methylbutanoyl)-N-((S)-1-(4-(4-methylthiazol-5-yl)phenyl)ethyl)pyrrolidine-2-carboxamide] | A (“A” indicates maximum degradation ≥ 75%) | > 75% | < 0.01 µM | > 0.01 µM
Cc1ncsc1-c1ccc([C@H](C)NC(=O)[C@@H]2C[C@@H](O)CN2C(=O)C(c2cc(OCCNC3(C(=O)O)CCc4[nH]c5nnc(-c6ccccc6O)cc5c4C3)no2)C(C)C)cc1 (relative stereo) [Compound 90, (6R*)-6-({2-[(5-{1-[(2S,4R)-4-hydroxy-2-{[(1S)-1-[4-(4-methyl-1,3-thiazol-5-yl)phenyl]ethyl]carbamoyl}pyrrolidin-1-yl]-3-methyl-1-oxobutan-2-yl}-1,2-oxazol-3-yl)oxy]ethyl}amino)-3-(2-hydroxyphenyl)-5H,7H,8H,9H-pyridazino[3,4-b]indole-6-carboxylic acid] | A (“A” indicates maximum degradation ≥ 75%) | < 50% | > 1 µM | 
Cc1ncsc1-c1ccc([C@H](C)NC(=O)[C@@H]2C[C@@H](O)CN2C(=O)[C@@H](c2cc(C3CCN(C(=O)[C@@]4(N)CCc5[nH]c6nnc(-c7ccccc7O)cc6c5C4)CC3)no2)C(C)C)cc1 (relative stereo) [Compound 103, (2S,4R)-1-[(2R)-2-(3-{1-[(6R*)-6-amino-3-(2-hydroxyphenyl)-5H,7H,8H,9H-pyridazino[3,4-blindole-6-carbonyl]piperidin-4-yl}-1,2-oxazol-5-yl)-3-methylbutanoyl]-4-hydroxy-N-[(1S)-1-[4-(4-methyl-1,3-thiazol-5-yl)phenyl]ethyl]pyrrolidine-2-carboxamide] | B (“B” indicates maximum degradation ≥ 50%) | < 50% | > 0.1 µM | 
Cc1ncsc1-c1ccc([C@H](C)NC(=O)[C@@H]2C[C@@H](O)CN2C(=O)[C@@H](c2cc(C3CCN(C(=O)[C@]4(N)CCc5[nH]c6nnc(-c7ccccc7O)cc6c5C4)CC3)no2)C(C)C)cc1 (relative stereo) [Compound 104, (2S,4R)-1-[(2R)-2-(3-{1-[(6R*)-6-amino-3-(2-hydroxyphenyl)-5H,7H,8H,9H-pyridazino[3,4-blindole-6-carbonyl]piperidin-4-yl}-1,2-oxazol-5-yl)-3-methylbutanoyl]-4-hydroxy-N-[(1S)-1-[4-(4-methyl-1,3-thiazol-5-yl)phenyl]ethyl]pyrrolidine-2-carboxamide] | B (“B” indicates maximum degradation ≥ 50%) | < 50% | > 0.1 µM | 
Cc1ncsc1-c1ccc([C@H](C)NC(=O)[C@@H]2C[C@@H](O)CN2C(=O)[C@@H](c2cc(C3CN(C(=O)[C@H]4CCc5[nH]c6nnc(-c7ccccc7O)cc6c5C4)C3)no2)C(C)C)cc1 (relative stereo) [Compound 157, (2S,4R)-4-hydroxy-1-[(2R*)-2-(3-{1-[(6R**)-3-(2-hydroxyphenyl)-5H,6H,7H,8H,9H-pyridazino[3,4-b]indole-6-carbonyl]azetidin-3-yl}-1,2-oxazol-5-yl)-3-methylbutanoyl]-N-[(1S)-1-[4-(4-methyl-1,3-thiazol-5-yl)phenyl]ethyl]pyrrolidine-2-carboxamide] | A (“A” indicates maximum degradation ≥ 75%) | > 75% | > 0.1 µM | > 0.1 µM
Cc1ncsc1-c1ccc(CNC(=O)[C@@H]2C[C@@H](O)CN2C(=O)[C@@H](NC(=O)CCC(=O)N[C@H]2CCc3[nH]c4nnc(-c5ccccc5O)cc4c3C2)C(C)(C)C)cc1 (relative stereo) [Compound 174, N1-((S)-1-((2S,4R)-4-hydroxy-2-((4-(4-methylthiazol-5-yl)benzyl)carbamoyl)pyrrolidin-1-yl)-3,3-dimethyl-1-oxobutan-2-yl)-N4-((S)-3-(2-hydroxyphenyl)-6,7,8,9-tetrahydro-5H-pyridazino[3,4-b]indol-6-yl)succinamide] | B (“B” indicates maximum degradation ≥ 50%) | < 50% | > 1 µM | 
Cc1ncsc1-c1ccc(CNC(=O)[C@@H]2C[C@@H](O)CN2C(=O)[C@@H](NC(=O)CCCCC(=O)N[C@H]2CCc3[nH]c4nnc(-c5ccccc5O)cc4c3C2)C(C)(C)C)cc1 (relative stereo) [Compound 175, N1-((S)-1-((2S,4R)-4-hydroxy-2-((4-(4-methylthiazol-5-yl)benzyl)carbamoyl)pyrrolidin-1-yl)-3,3-dimethyl-1-oxobutan-2-yl)-N6-((S)-3-(2-hydroxyphenyl)-6,7,8,9-tetrahydro-5H-pyridazino[3,4-b]indol-6-yl)adipamide] | A (“A” indicates maximum degradation ≥ 75%) | < 50% | > 1 µM | 
Cc1ncsc1-c1ccc([C@H](C)NC(=O)[C@@H]2C[C@@H](O)CN2C(=O)[C@@H](c2cc(-c3cnc(N4CCc5[nH]c6nnc(-c7ccccc7O)cc6c5C4)nc3)no2)C(C)C)cc1 (single isomer, unassigned) [Compound 85] | A (“A” indicates maximum degradation ≥ 75%) | > 75% | > 0.01 µM | > 0.1 µM
Cc1ncsc1-c1ccc([C@H](C)NC(=O)[C@@H]2C[C@@H](O)CN2C(=O)C(c2cc(OCC(=O)N[C@@]3(C(=O)O)CCc4[nH]c5nnc(-c6ccccc6O)cc5c4C3)no2)C(C)C)cc1 (single isomer, unassigned) [Compound 88] | C (“C” indicates maximum degradation < 50%) | < 50% |  | 
